Literature values in article PMC8650797 (The ocular surface, 2020).

System: herpes simplex virus DNA polymerase
Conditions: native peptide; ref [29] Digard et al.

Sequence: EETRRMLHRAFDTLA
- activity in blocking DNA synthesis in vitro: very poor activity
